Reference: PMC11077815, “Synthesis and antitumor activity of dolutegravir derivatives bearing 1,2,3-triazole moieties” (BMC Chemistry, 2024)

How the values were obtained:
PC-9 [1] = test: Apoptosis assay (Annexin V-FITC/PI flow cytometry), PC-9; type: cell-based, Human; conditions: 48 h
Procedure: Further, the effects of 9e and 9p on the apoptosis of tumor cells were studied to get details of the suppression of cell proliferation caused by these compounds. PC-9 and H460 cells treated with different concentrations of 9e or 9p were stained with Annexin V-FITC and PI, and the numbers of apoptosis cells were analyzed by the flow cytometry.
PC-9 and H460 cells were cultured in 6-well plates with a density of 3 × 10^5 cells/well. Different concentrations of 9e or 9p were added to cells for 48 h respectively. The concentrations were 0, 2, 4, and 8 µM for PC-9 cells and 0, 4, 8 and 16 µM for H460 cells. After treatment, Annexin V-FITC Apoptosis Detection Kit was used to determine the apoptotic ratio and FlowJo software v10 was used to analyze of the results.

[2] = system: HRM (Human Renal Mesangial) cell line; test: CCK8 cell viability assay, HRM normal cells (toxicity control); type: cell-based; conditions: for IC50: HRM normal human cells, 48 h, CCK8, mean ± SE
Procedure: Based on these preliminary results, compounds 9c, 9e, 9f, 9i, 9k, 9 L, 9p, 9q, 9t, 9u, 9v, 9w, 10c, 10e which were effective to most of the cell lines were chosen for the measurement of the half-maximal inhibitory concentration (IC50). […] HRM (Human Renal Mesangial) cell line was used as a control to study the toxicity of these compounds against normal human cells.
(§1) CCK8 assay was used to measure cell viability. Cells with a density of 1 × 10^4 cells/well were seeded on the 96-well plates. After adhesion, cells were treated with different diluted compounds or vehicle control DMSO and continue cultured for 48 h. Then, CCK8 reagent was added for one hour incubation at 37 °C with 5% of CO2. Absorbance was measured using a microplate spectrophotometer (Thermo) at 450 nm. The ratio of cell viability of control was taken as 100%. […] Then IC50 of the compounds were investigated using the prism statistical software.

LC3 = test: Western blot of LC3 in PC-9 cells; type: cell-based, Human; conditions: PC-9, 0, 2, 4, 8 µM, 48 h
Text: (§2) To determine the role of compounds 9e and 9p on regulating the development of cell proliferation, expressions of key proteins which were involved in cell growth progresses such as autophagy, apoptosis, cell cycle and DNA damage were examined. Ubiquitin like molecule light chain 3 (LC3) is a key marker of autophagy. […] Caspase3, which is one of the key proteins in regulating apoptosis, however, was not changed in tumor cells after treated with 9e or 9p. Cell cycle regulation proteins such as CyclinD, CyclinE or β-catenin were also not affected when PC-9 was treated with 9e or 9p. Further, H2AX variant histone (γ-H2AX), which was responsible for DNA damage, was also not affected when PC-9 were treated with 9e or 9p.
(§3) Protein expression levels were measured by western blot. PC-9 cells were cultured in 12-well plates and different concentrations (0, 2, 4, 8µM) of 9e and 9p were added for 48 h. Proteins were extracted from whole cells using radioimmunoprecipitation assay (RIPA). Buffer containing protease/phosphatase inhibitor cocktail (CST). Sodium dodecyl sulfate (10-15%) polyacrylamide gel electrophoresis and nitrocellulose membranes (Millipore) were used to separate and collect proteins. Antibodies used include, LC3 (3868s, CST), Caspase3 (9662, CST), cyclin D (2922s, CST), cyclin E (20808s, CST), γ-H2AX (9718s, CST), and β-actin (4967s, CST).

A549 = test: CCK8 cell viability assay, A549; type: cell-based, Human; conditions: for Cell viability (100%): A549, 20 µM, 48 h, CCK8, control = 100%; for IC50: A549, 48 h, CCK8, mean ± SE
Procedure: as §1, with “At first, CCK8 assay was carried out to evaluate the anti-proliferative activity of dolutegravir-1,2,3-triazole derivatives against different cancer cell lines. The results of cell viability of three lung cancer cell lines A549, PC-9 and H460 in the presence of compounds 9 and 10 are summarized in Table 2. Cells were treated with different compounds at the concentration of 20 µM for 48 h. […] Human lung cancer cell lines A549, PC-9 and H460 were all obtained from ATCC. Cells were cultured in DMEM or RPMI 1640 medium containing 10% FBS and 1% penicillin/streptomycin at 37 °C with a 5% CO2-humidified atmosphere. CCK8 assay” for “CCK8 assay”

H460 [3] = test: Cellular ROS measurement (DCFH-DA), H460; type: cell-based, Human; conditions: H460, 5 µM and 10 µM, 24 h, DCFH-DA staining
Procedure: Reactive oxygen species could induce cell death and suppress cell growth and proliferation. To assess the role of compounds 9e and 9p in ROS generation, different cancer cell lines were treated with 9e or 9p for 24 h. DCFDA was used to stain cells and ROS was detected with fluorescent microscope.
PC-9 and H460 cells were cultured in 96-well plates in a density of 5 × 10^3 cells/well. Different concentrations (0, 5 and 10 µM) of 9e or 9p were added to cells respectively for 24 h. After treatment, cells were stimulated with 10 µM DCFH-DA for 30 min at 37 °C, then observed and photographed using a fluorescent microscope.

PC-9 [4] = test: LIVE/DEAD staining, PC-9; type: cell-based, Human; conditions: PC-9, 5, 10 or 20 µM, 24 h
Procedure: LIVE/DEAD staining experiments were carried out to evaluate the anti-proliferative activity of dolutegravir derivatives 9e and 9p against PC-9 and H460 cell lines. The tumor cells were treated with 5 µM, 10 µM or 20 µM of 9e and 9p for 24 h. The live and dead cells were photographed and counted.
PC-9 and H460 cells with a density of 5 × 10^3 cells/well were seeded on the 96-well plates. Then different concentrations (0, 5 µM, 10 µM, 20 µM) of 9e or 9p were treated for 24 h. Cells were then stained with the LIVE/DEAD Assay Kit, observed and photographed using the fluorescent microscope.

H460 [5] = test: Plate clone formation assay, H460; type: cell-based, Human; conditions: H460, 0, 2, 4, 8, 16 and 32 µM, 48 h
Procedure: The plate clone formation experiments were also carried outto further confirm the effects of dolutegravir derivatives on cell proliferation. Compounds 9e and 9p with different concentrations (0, 2, 4, 8, 16 and 32 µM) were added to the cells.
PC-9 and H460 cells were seeded into 6-well plates at a density of 100–500 cells/well. After 10 days culture, cells were added with 9e or 9p at different concentrations (0, 2 µM, 4 µM, 8 µM, 16 µM, 32 µM) for 48 h. Then cells were fixed by 4% paraformaldehyde and stained by Giemsa dye. An optical microscope was used to photograph cells and count the clone numbers.

γ-H2AX = test: Western blot of γ-H2AX in PC-9 cells; type: cell-based, Human; conditions: PC-9, 0, 2, 4, 8 µM, 48 h
Text: as §2, §3

IC50 (A549) | SMILES | cell apoptosis (PC-9 [1]; PC-9, 2 µM or 4 µM) | cell apoptosis (PC-9 [1]; PC-9, 8 µM) | toxicity against normal cells ([2]; HRM cells) | IC50 [2] | expression of LC3 (LC3) | Cell viability (100%) (A549) | ROS generation (H460 [3]) | number of live cells (PC-9 [4]) | ratio of dead/live cells (PC-9 [4]) | plate clone formation (cell proliferation) (H460 [5]) | γ-H2AX expression (γ-H2AX)
8.72 ± 0.11 µM | COc1c2n(cc(C(=O)Nc3cccc(-c4cn(-c5cccc([N+](=O)[O-])c5C)nn4)c3)c1=O)C[C@@H]1OCC[C@@H](C)N1C2=O [Compound 9e] | little influence | significant effects on cell apoptosis | low toxicity against normal cells | > 50 µM | significantly increased | 9.14% | significantly increased | decreased significantly in a dose dependent manner | increased significantly with the increase of concentration | anti-proliferative activity against cell lines PC9 and H460 in a dose-dependent manner | not affected
13 ± 0.32 µM | COc1c2n(cc(C(=O)Nc3cccc(-c4cn(-c5cccc(C(F)(F)F)c5)nn4)c3)c1=O)C[C@@H]1OCC[C@@H](C)N1C2=O [Compound 9p] | little influence | significant effects on cell apoptosis | – | 35.6 ± 10.8 µM | significantly increased | 10.85% | significantly increased | decreased with the increase of concentration | increased compared with untreated group but not completely in a dose dependent manner | anti-proliferative activity against cell lines PC9 and H460 in a dose-dependent manner | not affected
